Laboratory results published in patent publication US20080070939A1, “LOCAL […] COMPOSITIONS CONTAINING DEXTROROTATORY MORPHINAN DERIVATIVES OR PHARMACEUTICALLY ACCEPTABLE SALTS THEREOF” (CHI MEI FOUNDATION HOSPITAL, priority 2006, published 2008).
Where “and” joins values, the source holds several entries; their conditions need not be identical. Identical values can stand only once. Counter-ions that a name gives are not always drawn. Like-named read-outs stand apart in the source and are kept apart here.

Legend:
Type in all cases: in vivo
Male Sprague-Dawley rats [1] = experiment: Spinal anesthetic effect (spinal blockade) after intrathecal injection in rats; parameters: AUC of time-% PE curve, spinal blockade of motor function / AUC of time-% PE curve, spinal blockade of proprioception / AUC of time-% PE curve, spinal blockade of nociceptive reaction: unit not given beside the values; settings: for AUC of time-% PE curve, spinal blockade of motor function / AUC of time-% PE curve, spinal blockade of nociceptive reaction / AUC of time-% PE curve, spinal blockade of proprioception: 2 ED50 when administered independently, ED50 of each drug when co-administered, mean ± SEM; for Motor function ED50 (95% CI): spinal blockade of motor function; for Motor function ED50 (95% CI) / Nociceptive reaction ED50 (95% CI) / Proprioception ED50 (95% CI): intrathecal injection; for Nociceptive reaction ED50 (95% CI): spinal blockade of nociceptive reaction; for Proprioception ED50 (95% CI): spinal blockade of proprioception; for Mean value ED25 / Mean value ED50 / Mean value ED75: spinal blockade, mean of motor function, proprioception and nociceptive reaction
Procedure: (§1) Male Sprague-Dawley rats (weighing about 300 to 350 g); for each dose of each drug, n=6.
In brief, for preparation, the hairs on the back of each rat were shaved, and the shaved back was sterilized with iodine.
After three minutes, 50 μL of each of the tested drugs was injected via a 27-gauge needle attached to a 100-μL syringe (Hamilton, Reno, Nev.) into the intrathecal space between the fourth and fifth lumbar vertebrae. The development of spinal blockade was observed from the paralysis of the hind limbs of the rats.
The magnitude of nerve block (including blocking of motor function, proprioception, and nociceptive reaction) was expressed as the percentage of possible effect (hereinafter referred to as % PE), and the maximal value of % PE was expressed as the percentage of maximal possible effect (hereinafter referred to as % MPE).
Motor function was evaluated by measuring the extensor postural thrust of the right hind limbs of the rats using a digital platform balance (Mettler Toledo, Switzerland, model PB1502-S). To test the extensor postural thrust, the rat was held upright with the hind limb extended, so that the body weight of the rat was supported by the distal metatarsus and toes. The extensor postural thrust could be measured as the force of the right hind limb of the rat thrusting the platform balance.
A reduction in the force, resulting in extensor muscle tone, was considered as a motor deficit. A force less than 20 g (i.e., a weight of the “flaccid limb”) was considered absence of an extensor postural thrust or 100% motor block or 100% MPE.
Proprioception was evaluated based on resting posture and postural reactions (including tactile placing and hopping). First, the front half of the rat body and one of the hind limbs were lifted off the ground at the same time so that the rat was standing on one hind limb. Then, the rat was moved laterally, which normally evoked a prompt hopping response of the weight-bearing hind limb of the rat in the direction of movement so as to avoid falling. A predominantly proprioceptive block caused a delayed hopping followed by greater lateral hops. […] Functional deficits were classified into four grades: 3 (normal or 0% MPE), 2 (slightly impaired), 1 (severely impaired), and 0 (completely impaired or 100% MPE).
Nociceptive reaction was evaluated by the withdrawal reflex or vocalization elicited by the pinch of a skin fold over the back at 1 cm near the proximal part of the tail, the lateral metatarsus of the bilateral hind limbs, and the dorsal part of the mid-tail. At each testing time, only one pinch was given to each of the abovementioned four testing sites, and the time interval between stimulations at different sites was around 2 seconds. Nociceptive reactions were classified into five grades: 4 (normal or 0% MPE), 3 (25% MPE), 2 (50% MPE), 1 (75% MPE), and 0 (absent or 100% MPE).
The potency of each drug on spinal blockades was compared using ED50.
Duration was defined as the interval from injection of the tested drugs to complete recovery. The ED25, ED50 and ED75 obtained according to the SAS NLIN analysis in the preceding section “C. Potency evaluation” were used in this experiment.
Regarding the method of evaluating the effect of co-administration, dextromethorphan hydrobromide monohydrate was used as an example.
After the tests, the time of measurement of each drug and its corresponding % PE were plotted to obtain the time-% PE curves of each drug. The area under the curve (AUC) of time-% PE was calculated using the trapezoidal rule, and was used to evaluate the effect of the co-administration of the drugs.
Statistical software, SPSS for Windows® (version 10.0.7) was used. Data were represented as mean±SEM.

sciatic nerve = experiment: Sciatic nerve blockade after injection at the sciatic nerve notch in rats; parameters: AUC of time-% PE curve, sciatic nerve blockade of motor function / AUC of time-% PE curve, sciatic nerve blockade of proprioception / AUC of time-% PE curve, sciatic nerve blockade of nociceptive reaction: unit not given beside the values; settings: for ED50: Rattus norvegicus
Procedure: as §1
In brief, the rats were slightly anesthetized by inhalation of a low concentration of sevoflurane. Then, 200 μL of tested drugs were injected at the sciatic nerve notch at the left hind limb of the rat using a 27-gauge needle connected to a tuberculin syringe (Becton Dickinson, USA, model BND309623-BX). Thereafter, development of sciatic nerve blockade was observed from the paralysis of the left hind limb of the rat. The right hind limb served as a control during the subsequent functional assay
For proprioception, the front half of the rat body and the right hind limb were off the ground at the same time so that the rat was standing on the left hind limb during the measurement.
The differences resided in that: The sciatic nerve notch injections of ED25, ED50 and ED75 were conducted based on the method described in the preceding section “A. Drug injection” of this example. Evaluations of motor function, proprioception and nociceptive reaction were conducted based on the method described in section “B. Neurobehavioral evaluations” of this example.
The differences resided in that: Before the statistical analysis, Shapiro-Wilk test was used to evaluate whether the data were, theoretically, normally distributed.

Male Sprague-Dawley rats [2] = experiment: Infiltrative cutaneous anesthesia (inhibition of cutaneous trunci muscle reflex, CTMR) after subcutaneous injection in rats
Procedure: Male Sprague-Dawley rats (weighing about 200 to 250 g); for each dose of each drug, n=8.
In brief, hairs on the dorsal surface (about 10×10 cm^2) of the thoracolumbar region of the rat were shaved, and the shaved surface was sterilized with iodine for preparation. To reduce the number of animals used, the back of the rat was further divided into left and right parts. One drug was injected first at the right part. After a washout period of one week, another drug was injected at the left part.
0.6 mL of drug was injected subcutaneously under the dorsal surface of the thoracolumbar region of the rat using a 30-gauge needle attached to a syringe (Becton Drive, Franklin Lakes, USA). The subcutaneous injection would result in a circular elevation (i.e., a wheal) of the skin, about 2 cm in diameter. The elevation was marked with ink within 1 minute after injection.
CTMR refers to the reflex movement of the skin of the back caused by twitching of the lateral thoracispinal muscle in response to local dorsal cutaneous stimulation. Essentially, a von Frey filament (No.15; Somedic Sales AB, Sweden) to which a cut end of an 18-gauge needle was affixed was used to produce a standard nociceptive stimulus (strength: 19 g). Six pinpricks (at a frequency of 0.5-1 Hz) were applied to a single marked wheal during each test. […] For example, absence of any response to all of the 6 pinpricks was defined as a complete nociceptive block (i.e., 100% MPE).
The difference resided in that subcutaneous injections of ED25, ED50 and ED75 of the drugs were performed based on the method described in the section “A. Drug injection” of this example, and evaluation of the infiltrative cutaneous anesthetic effect was performed based on the method described in the section “B. Neurobehavioral evaluation” of this example.

[3] = read-out: Motor function ED50 (95% CI)
[4] = read-out: Nociceptive reaction ED50 (95% CI)
[5] = read-out: Proprioception ED50 (95% CI)
[6] = rats, 2ED50 when administered independently, ED50 of each drug when co-administered, mean ± SEM
[7] = intrathecal dose of ED75, injection to complete recovery, rats
[8] = intrathecal dose of ED75, rats, mean±SEM
[9] = intrathecal, rats, hydrochloride
[10] = dosage of 6.7 mg/kg, sciatic nerve notch injection, rats
[11] = infiltrative cutaneous anesthesia, rats, 2ED50 when administered independently, ED50 for co-administration, mean ± SEM, hydrochloride
[12] = infiltrative cutaneous anesthesia, subcutaneous injection, rats
[13] = subcutaneous dose of ED75, rats, mean±SEM

COc1ccc2c(c1)[C@@]13CCCC[C@H]1[C@@H](C2)NCC3.Cl [3-methoxymorphinan hydrochloride]
% MPE of spinal blockades of motor function, proprioception and nociceptive reaction (range over the three functions) (Male Sprague-Dawley rats [1]; intrathecal dose of ED75, rats): 66-79 % MPE
duration of spinal blockades of motor function, proprioception and nociceptive reaction (range over the three functions) (Male Sprague-Dawley rats [1]; intrathecal dose of ED75, rats): 28 to 35 min
effect of co-administration with bupivacaine hydrochloride on spinal blockade (Male Sprague-Dawley rats [1]; intrathecal, rats, ED50 of each drug): additive effect
AUC of time-% PE curve, spinal blockade of motor function (Male Sprague-Dawley rats [1]; intrathecal, rats): 1265 ± 232
AUC of time-% PE curve, spinal blockade of nociceptive reaction (Male Sprague-Dawley rats [1]; intrathecal, rats): 2081 ± 227
AUC of time-% PE curve, spinal blockade of proprioception (Male Sprague-Dawley rats [1]; intrathecal, rats): 1917 ± 254
Motor function ED50 (95% CI) (Male Sprague-Dawley rats [1]; rats): 0.45 (0.43–0.47) mg
Nociceptive reaction ED50 (95% CI) (Male Sprague-Dawley rats [1]; rats): 0.39 (0.37–0.42) mg
Proprioception ED50 (95% CI) (Male Sprague-Dawley rats [1]; rats): 0.40 (0.38–0.43) mg
Mean value ED25 (Male Sprague-Dawley rats [1]; intrathecal, rats): 0.33 mg
Mean value ED50 (Male Sprague-Dawley rats [1]; intrathecal, rats): 0.41 mg
Mean value ED75 (Male Sprague-Dawley rats [1]; intrathecal, rats): 0.53 mg
sciatic nerve blocking effect on nociceptive reaction compared with motor function (sciatic nerve; ED50 basis, p<0.01, rats): more potent sciatic nerve blocking effect on nociceptive reaction than on motor function
ED50 (sciatic nerve; read-out: Mean ED50): 6.68 mg/kg
ED50 (sciatic nerve; [3]): 7.4 mg/kg
ED50 (sciatic nerve; [4]): 5.89 mg/kg
ED50 (sciatic nerve; [5]): 6.76 mg/kg
effect of co-administration with lidocaine hydrochloride on sciatic nerve blockades (sciatic nerve; rats, ED50 of each drug): additive effect
AUC of time-% PE curve, sciatic nerve blockade of motor function (sciatic nerve; [6]): 4559 ± 584
AUC of time-% PE curve, sciatic nerve blockade of nociceptive reaction (sciatic nerve; [6]): 8026 ± 1437
AUC of time-% PE curve, sciatic nerve blockade of proprioception (sciatic nerve; [6]): 5191 ± 652
duration of sciatic nerve blockade compared with lidocaine hydrochloride (sciatic nerve; same effective doses (ED25, ED50 or ED75), rats): longer reaction duration

CCCCN1CCCCC1C(=O)Nc1c(C)cccc1C (centres unmarked) [Bupivacaine hydrochloride, reference compound]
duration of spinal blockade of motor function (Male Sprague-Dawley rats [1]; [7]): about 25±3 minutes
duration of spinal blockade of nociceptive reaction (Male Sprague-Dawley rats [1]; [7]): ~63 ± 7 min
duration of spinal blockade of proprioception (Male Sprague-Dawley rats [1]; [7]): ~32 ± 4 min
% MPE of spinal blockade of motor function (Male Sprague-Dawley rats [1]; [8]): about 71±3 % MPE
% MPE of spinal blockade of nociceptive reaction (Male Sprague-Dawley rats [1]; [8]): ~81±3 % MPE
% MPE of spinal blockade of proprioception (Male Sprague-Dawley rats [1]; [8]): ~72±4 % MPE
AUC of time-% PE curve, spinal blockade of motor function (Male Sprague-Dawley rats [1]; [9]): 1292 ± 113 and 1238 ± 147 and 1383 ± 131
AUC of time-% PE curve, spinal blockade of nociceptive reaction (Male Sprague-Dawley rats [1]; [9]): 4378 ± 184 and 4512 ± 229 and 4410 ± 225
AUC of time-% PE curve, spinal blockade of proprioception (Male Sprague-Dawley rats [1]; [9]): 2597 ± 245 and 2638 ± 308 and 2774 ± 299
Motor function ED50 (95% CI) (Male Sprague-Dawley rats [1]; rats): 0.12 (0.11–0.12) mg
Nociceptive reaction ED50 (95% CI) (Male Sprague-Dawley rats [1]; rats): 0.09 (0.08–0.09) mg
Proprioception ED50 (95% CI) (Male Sprague-Dawley rats [1]; rats): 0.10 (0.10–0.11) mg
Mean value ED25 (Male Sprague-Dawley rats [1]; intrathecal, rats): 0.08 mg
Mean value ED50 (Male Sprague-Dawley rats [1]; intrathecal, rats): 0.11 mg
Mean value ED75 (Male Sprague-Dawley rats [1]; intrathecal, rats): 0.14 mg

CCN(CC)CC(=O)Nc1c(C)cccc1C [Lidocaine hydrochloride, reference compound]
ED50 (sciatic nerve; [3]): 2.67 mg/kg
ED50 (sciatic nerve; [4]): 2.35 mg/kg
ED50 (sciatic nerve; [5]): 2.57 mg/kg
% MPE of sciatic nerve blockade of motor function (sciatic nerve; [10]): 100 % MPE
% MPE of sciatic nerve blockade of nociceptive reaction (sciatic nerve; [10]): 100 % MPE
% MPE of sciatic nerve blockade of proprioception (sciatic nerve; [10]): 100 % MPE
duration of sciatic nerve blockade of motor function (sciatic nerve; [10]): about 63±6 minutes
duration of sciatic nerve blockade of nociceptive reaction (sciatic nerve; [10]): ~83 ± 6 min
duration of sciatic nerve blockade of proprioception (sciatic nerve; [10]): ~73 ± 4 min
ED50 (Male Sprague-Dawley rats [2]; Rattus norvegicus, sc, infiltrative cutaneous anesthesia, subcutaneous injection, rats, read-out: ED50 (95% CI)): 7 mg/kg
% MPE (Male Sprague-Dawley rats [2]; [11]): 90 ± 5 % MPE and 88 ± 6 % MPE
Duration (Male Sprague-Dawley rats [2]; [11]): 51 ± 3 min and 52 ± 4 min
ED25 (Male Sprague-Dawley rats [2]; [12]): 5.31 mg/kg
ED75 (Male Sprague-Dawley rats [2]; [12]): 9.24 mg/kg
% MPE of cutaneous nociceptive block (Male Sprague-Dawley rats [2]; [13]): 72±7 % MPE
duration of cutaneous nociceptive block (Male Sprague-Dawley rats [2]; [13]): ~33 ± 4 min
